# Assay results published in patent US6638953B2, “Indole derivatives as 5-HT receptor antagonist” (SmithKline Beecham p.l.c., priority 1995, dated 2003).
# Where a name gives a salt, the structure may show the parent alone.
row,melting point,SMILES
1,193 to 194 °C,COc1cc2c(cc1C(F)(F)F)N(C(=O)Nc1ccc(Oc3cccc(C(F)(F)F)c3)nc1)CC2 [Example 165]
2,204 to 207 °C,COc1cc2c(cc1C(F)(F)F)N(C(=O)Nc1ccc(-c3ccccc3)nc1)CC2 [Example 94]
3,92 to 94 °C,CSc1cc2c(cc1C(F)(F)F)N(C(=O)Nc1cccc(C(=O)NCCc3ccccn3)c1)CC2 [Example 153]
4,160 to 163 °C,"COc1cc2c(cc1C(F)(F)F)N(C(=O)Nc1ccc(SCc3ccncc3)cc1)CC2 [Example 62, 5-Methoxy-6-trifluoromethyl-1-[4-(pyridin-4-ylmethylthio)phenyl Carbamoyl]indoline]"
5,> 225 °C,COc1cc2c(cc1C(F)(F)F)N(C(=O)Nc1ccc(-c3cccnc3)cn1)CC2 [Example 95]
6,214 to 218 °C,O=C(Nc1cc(F)cc(-c2cncnc2)c1)N1CCc2cc(Br)c(C(F)(F)F)cc21 [Example 172]
7,155 to 156 °C,COc1cc2c(cc1C(F)(F)F)N(C(=O)Nc1cc(-c3cccnc3)cc(-c3cccnc3)c1)CC2 [Example 114]
8,202 to 204 °C,COc1cc2c(cc1C(F)(F)F)N(C(=O)Nc1cccc(OCc3cccnc3)c1)CC2 [Example 137]
9,215 to 220 °C,CCc1ccccc1Oc1ccc(NC(=O)N2CCc3cc(OC)c(C(F)(F)F)cc32)cn1 [Example 162]
10,226 to 227 °C,Cc1cc2c(cc1Cl)N(C(=O)Nc1cc(F)cc(-c3cnccn3)c1)CC2 [Example 131]
11,204 to 206 °C,COc1cc2c(cc1C(F)(F)F)N(C(=O)Nc1ccc(Sc3ccncc3)nc1)CC2 [Example 146]
12,223 to 225 °C,COc1cc2c(cc1C(F)(F)F)N(C(=O)Nc1ccnc(Oc3cccnc3)c1)CC2 [Example 64]
13,203 to 204 °C,"COc1cc2c(cc1C(F)(F)F)N(C(=O)Nc1cccc(-c3noc(C)n3)c1)CC2 [Example 27, 5-Methoxy-1-(5-methyl-(1,2-4-oxadiazol-3-yl)-phenylcarbamoyl)-6-trifluoromethyl Indoline]"
14,113 to 114 °C,"COc1cc2c(cc1C(F)(F)F)N(C(=O)Nc1cncc(-c3cccnc3)c1)CC2 [Example 12, 1-[5-(3-Pyridyl)-pyrid-3-yl Carbamoyl]-5-methoxy-6-trifluoromethyl Indoline]"
15,202 to 203 °C,COc1cc2c(cc1C(F)(F)F)N(C(=O)Nc1ccc(Oc3ccccc3)nc1)CC2 [Example 155]
16,103 to 105 °C,COc1cc2c(cc1C(F)(F)F)N(C(=O)Nc1cncc(-c3ccccc3C)c1)CC2 [Example 90]
17,228 to 230 °C,COc1cc2c(cc1C(F)(F)F)N(C(=O)Nc1cccc(-c3ccc(C)nc3)c1)CC2 [Example 112]
18,> 230 °C,"COc1cc2c(cc1C(F)(F)F)N(C(=O)Nc1ccc(-c3cccnc3)cc1)CC2 [Example 4, 1-[(3-Pyridyl)-4-phenyl Carbamoyl]-5-methoxy-6-trifluoromethylindoline]"
19,138 to 140 °C,C=Cc1cc(NC(=O)N2CCc3cc(OC)c(C(F)(F)F)cc32)cc(-c2cccnc2)c1 [Example 104]
20,> 200 °C,COc1cc2c(cc1C(F)(F)F)N(C(=O)Nc1cncc(-c3ccc(F)cc3)c1)CC2 [Example 87]

row,melting point,SMILES
1,193 to 208 °C,"COc1cc2c(cc1C(F)(F)F)N(C(=O)Nc1cncc(-c3cccs3)c1)CC2 [Example 15, 1-[5-(2-Thienyl)-pyrid-3-yl Carbamoyl]-5-methoxy-6-trifluoromethyl Indoline]"
2,165 to 167 °C,"COc1cc2c(cc1C(F)(F)F)N(C(=O)Nc1cncc(-c3ccsc3)c1)CC2 [Example 16, 1-[5-(3-Thienyl)-pyrid-3-yl Carbamoyl]-5-methoxy-6-trifluoromethyl Indoline]"
3,205 to 206 °C,Cc1cc2c(cc1Cl)N(C(=O)Nc1cc(F)cc(-c3cccnc3C)c1)CC2 [Example 134]
4,215 to 217 °C,COc1cc2c(cc1C(F)(F)F)N(C(=O)Nc1ccc(OCc3cccnc3)cc1)CC2 [Example 138]
5,208 to 214 °C,"CSc1cc2c(cc1C(F)(F)F)N(C(=O)Nc1cncc(-c3ccccc3)c1)CC2 [Example 11, 1-(5-Phenyl Pyrid-3-yl Carbamoyl)-5-methylthio-6-trifluoromethyl Indoline]"
6,> 210 °C,"COc1cc2c(cc1C(F)(F)F)N(C(=O)Nc1ccc(-c3ccncc3)cc1)CC2 [Example 5, 1-[(4-Pyridyl)-4-phenyl Carbamoyl]-5-methoxy-6-trifluoromethyl Indoline]"
7,138 to 140 °C,CSc1cc2c(cc1C(F)(F)F)N(C(=O)Nc1ccc(C(=O)NCc3ccncc3)cc1)CC2 [Example 151]
8,193 to 194 °C,COc1cc2c(cc1C(F)(F)F)N(C(=O)Nc1ccc(Oc3cccnc3)cc1)CC2 [Example 143]
9,243 to 246 °C,"COc1cc2c(cc1C(F)(F)F)N(C(=O)Nc1ccc3c(ccn3Cc3cccnc3)c1)CC2 [Example 71, 1-(1-(3-Pyridylmethyl)-5-indolylcarbamoyl)-5-methoxy-6-trifluoromethylindoline]"
10,217 to 219 °C,"COc1cc2c(cc1C(F)(F)F)N(C(=O)Nc1cncc(-c3c(F)cccc3F)c1)CC2 [Example 22, 1-(5-(2,6-Difluorophenyl)-3-pyridylcarbamoyl)-5-methoxy-6-trifluoromethylindoline]"
11,> 220 °C,COc1cc2c(cc1C(F)(F)F)N(C(=O)Nc1cccc(-c3ccnc(C)n3)c1)CC2 [Example 113]
12,237 to 238 °C,COc1cc2c(cc1C(F)(F)F)N(C(=O)Nc1ccc(Oc3ccccc3C(F)(F)F)nc1)CC2 [Example 164]
13,161 to 162 °C,COc1cc2c(cc1C(F)(F)F)N(C(=O)Nc1cccc(-c3cnc(C)cc3C)c1)CC2 [Example 117]
14,233 to 235 °C,Cc1cc2c(cc1Cl)N(C(=O)Nc1cc(F)c(C)c(-c3cccnc3)c1)CC2 [Example 129]
15,180 to 181 °C,COc1cc2c(cc1C(F)(F)F)N(C(=O)Nc1cc(-c3cccnc3)c(OC)c(C(F)(F)F)c1)CC2 [Example 108]
16,240 °C (dec.),COc1cc2c(cc1C(F)(F)F)N(C(=O)Nc1cccc(-c3cnc4ccccc4c3)c1)CC2 [Example 86]
17,260 °C,O=C(Nc1cc(F)cc(-c2cncnc2)c1)N1CCc2cc(Cl)c(Cl)cc21 [Example 170]
18,132 to 135 °C,O=C(Nc1ccc(F)c(-c2cncnc2)c1)N1CCc2cc(Cl)c(Cl)cc21 [Example 169]
19,206 to 211 °C,"COc1cc2c(cc1C(F)(F)F)N(C(=O)Nc1ccc3c(ccn3-c3ccncc3)c1)CC2 [Example 59, 1-(1-(4-Pyridyl)-5-indolylcarbamoyl)-5-methoxy-6-trifluoromethylindoline]"
20,202 to 203 °C,"Cc1cc2c(cc1Cl)N(C(=O)Nc1ccc(C)c(-c3cccnc3)c1)CC2 [Example 23, 6-Chloro-5-methyl-1-(4-methyl-3-(pyrid-3-yl)-phenylcarbamoyl) Indoline]"

row,melting point,SMILES
1,185 to 186 °C,Cc1cc2c(cc1Cl)N(C(=O)Nc1ccc(F)c(-c3cccnc3)c1)CC2 [Example 136]
2,114 to 116 °C,COc1cc2c(cc1C(F)(F)F)N(C(=O)Nc1cncc(-c3ccccc3C=O)c1)CC2 [Example 91]
3,196 to 197 °C,COc1cc2c(cc1C(F)(F)F)N(C(=O)Nc1cccc(-c3cccnc3)c1OC)CC2 [Example 84]
4,198 to 199 °C,COc1cc2c(cc1C(F)(F)F)N(C(=O)Nc1cncc(-c3ccc(Cl)cc3)c1)CC2 [Example 89]
5,238 to 240 °C,COc1cc2c(cc1C(F)(F)F)N(C(=O)Nc1ccc(Oc3cccnc3Cl)nc1)CC2 [Example 161]
6,116 to 118 °C,CSc1cc2c(cc1C(F)(F)F)N(C(=O)Nc1cccc(C(=O)NCc3ccccn3)c1)CC2 [Example 154]
7,145 to 146 °C,CSc1cc2c(cc1C(F)(F)F)N(C(=O)Nc1cccc(C(=O)CCc3ccccn3)c1)CC2 [Example 149]
8,154 to 155 °C,COc1cc2c(cc1C(F)(F)F)N(C(=O)Nc1cccc(-c3noc(CN(C)C)n3)c1)CC2 [Example 100]
9,222 to 226 °C,Cc1cc2c(cc1Cl)N(C(=O)Nc1cc(F)cc(-c3cncnc3)c1)CC2 [Example 132]
10,226 to 228 °C,COc1cc2c(cc1C(F)(F)F)N(C(=O)Nc1ccc(Oc3ccccc3C)nc1)CC2 [Example 157]
11,202 to 203 °C,"CSc1cc2c(cc1C(F)(F)F)N(C(=O)Nc1cc(F)cc(-c3cccnc3)c1)CC2 (as salt: hydrochloride) [Example 25, 1-(3-Fluoro-5-(pyrid-3-yl)phenylcarbamoyl)5-thiomethyl-6-trifluoromethyl-indoline Hydrochloride]"
12,120 to 121 °C,COc1cc2c(cc1C(F)(F)F)N(C(=O)Nc1cncc(-c3cncnc3)c1)CC2 [Example 130]
13,208 to 209 °C,COc1cc2c(cc1C(F)(F)F)N(C(=O)Nc1ccc(Oc3ccc(F)cc3C)nc1)CC2 [Example 159]
14,206 to 209 °C,CSc1cc2c(cc1C(F)(F)F)N(C(=O)Nc1ccc(Cc3ccncc3)cc1)CC2 [Example 147]
15,204 to 205 °C,COc1cc2c(cc1C(F)(F)F)N(C(=O)Nc1cc(F)cc(-c3cccnc3C)c1)CC2 [Example 125]
16,199 to 202 °C,"COc1cc2c(cc1C(F)(F)F)N(C(=O)Nc1cncc(-c3ccc(C(F)(F)F)cc3)c1)CC2 [Example 13, 1-[5-(4-Trifluoromethylphenyl)-pyrid-3-yl Carbamoyl]-5-methoxy-6-trifluoromethyl Indoline]"
17,236 to 238 °C,COc1cc2c(cc1C(F)(F)F)N(C(=O)Nc1ccc(Oc3ccc(C)cc3C)nc1)CC2 [Example 160]
18,230 to 234 °C,"COc1cc2c(cc1C(F)(F)F)N(C(=O)Nc1cncc(-c3ccncc3)c1)CC2 [Example 18, 1-[5-(4-Pyridyl)-pyrid-3-yl Carbamoyl]-5-methoxy-6-trifluoromethyl Indoline]"
